Where a name gives a salt, the structure may show the parent alone.
Assays:
[1] = Triplet-triplet (T--T) absorption; assay type: physicochemical; details: fluorescent spectral area
Protocol: The T--T absorption spectrum was recorded at 77K, employing a 1×10^-4 molar solution of 2-methyltetrahydrofuran as solvent.

breast tumors = assay: Photodynamic therapy of DMBA-induced breast tumors, intratumor injection (Table VIII); assay type: in vivo, female Sprague Dawley rats; details: for COMPLETE RESPONSE (ANIMALS) / FINAL TOTAL TUMOR NO. / FINAL MEAN TUMOR VOLUME: four weeks
Protocol: Breast tumors were induced in fifty-day-old female Sprague Dawley rats by the oral feeding of dimethylbenzanthracene (DMBA) in peanut oil. Individual rats were fed 10 mg DMBA per 100 g body weight via gavage tubes. Palpable tumors developed 45 to 92 days after feeding. […] Following tumor development, tumors were measured and injected with PMPDS-BF2 dissolved in saline ([…] was injected into the center of the tumors to a concentration of 20 μg/cm^3 of tumor volume. Twenty-four hours after intratumor injection, the rats were anesthetized using phenobarbital (2 mg/kg i.p.) and the injected tumors were exposed to light from either a quartz lamp (100 or 250 w) or an argon laser (with 488/514 and 628 nm frequencies) for 10-20 minutes. Also included in this experiment were three control groups: (1) saline injected, unirradiated tumors; (2) saline injected, irradiated tumors; (3) PMPDS-BF2 injected, and unirradiated tumors.

## CC1=C(S(=O)(=O)O)C(C)=[N+]2C1=C(C)c1c(C)c(S(=O)(=O)O)c(C)n1[B-]2(F)F [PMPDS-BF2, Disodium salt of 4,4-difluoro-1,3,5,7,8-pentamethyl-4-bora-3a,4a-diaza-s-indacene-2,6-disulfonic acid monohydrate]
[1]
  T--T absorption: barely detectable
  T--T absorption ε.tau.: ~ 3×10^-3
Breast tumors; 20 ug/cm^3, no light
  COMPLETE RESPONSE (ANIMALS): 2/10
Breast tumors; 20 ug/cm^3, no light, initial 12
  FINAL TOTAL TUMOR NO.: 13
Breast tumors; 20 ug/cm^3 intratumor plus light (quartz lamp 100 watt, 20 min), initial 0.3
  FINAL MEAN TUMOR VOLUME: 0.1 cm^3
Breast tumors; 20 ug/cm^3 intratumor, no light, initial 0.2
  FINAL MEAN TUMOR VOLUME: 0.7 cm^3
Breast tumors; 20 ug/cm^3 plus light
  COMPLETE RESPONSE (ANIMALS): 7/10
Breast tumors; 20 ug/cm^3 plus light, initial 14
  FINAL TOTAL TUMOR NO.: 3
Breast tumors; injected and irradiated
  tumor necrosis: Tumor necrosis was observed
  tumor remission: 50-100%
Breast tumors; injected, not irradiated
  necrosis or remission: no necrosis or remission

Reference: patent US5446157A, “Boron difluoride compounds useful in photodynamic therapy and production of laser light” (priority 1993, dated 1995)
